From US6905861B2, “D-aminoacylases, method for producing the same, and method for producing D-amino acids using the same” (Daicel Chemical Industries, Ltd., priority 1998, dated 2005)

Columns and labels:
[1] = system: Hypomyces rosellus IFO 6911 strain; assay: D-amino acid production and optical purity from N-acetyl-DL-amino acid by washed fungal cells; format: cell-based; settings: Hypomyces rosellus IFO 6911 cells; 0.1% substrate, pH 7.5, 30° C., 24 hours
Procedure: (§1) A platinum loopful of Hypomyces rosellus IFO 6911 strain, Hypomyces sepulcralis IFO 9102 strain, or Hypomyces mycophilus IFO 6785 strain was inoculated into 25 ml of YM medium (containing 0.3% yeast extract, 0.3% malt extract, 0.5% peptone, and 2.0% glucose; pH 6.0) in a 500-ml shouldered flask. The fungi were shake-cultured at 24° C. for 3 days. After culturing, a 5-ml aliquot of the culture medium was centrifuged in a refrigerated centrifuge to collect the fungal cells. The cells were washed with physiological saline solution (5 ml), and collected by centrifugation again. A reaction solution (containing 0.1% N-acetyl-DL-amino acid shown in Table 2 below in Tris-HCl buffer, pH 7.5) was added to the cells thus collected. The mixture was incubated in a 5-ml test tube with shaking at 30° C. for 24 hours. D-Amino acid thus produced was assayed by high-performance liquid chromatography (column, CROWNPAK CR (Daicel Chemical); column temperature, 26° C.; mobile phase, HClO4 aqueous solution pH 2.0; flow rate, 1 ml/min; and detection, 200 nm) and examined for the optical purity.

[2] = system: Hypomyces sepulcralis IFO 9102 strain; assay: as above; format: cell-based; settings: Hypomyces sepulcralis IFO 9102 cells; 0.1% substrate, pH 7.5, 30° C., 24 hours
Procedure: as §1

[3] = system: Hypomyces mycophilus IFO 6785 strain; assay: as above; format: cell-based; settings: Hypomyces mycophilus IFO 6785 cells; 0.1% substrate, pH 7.5, 30° C., 24 hours
Procedure: as §1

[4] = system: D-aminoacylase (crude enzyme) of Auricularia auriculajudae IFO 5949; assay: Crude enzyme activity for each N-Ac-D-amino acid substrate; format: biochemical; settings: Auricularia auriculajudae IFO 5949 crude enzyme; 20 mM substrate, 1 mM CoCl2, 50 mM phosphate buffer pH 7.0
Procedure: (§2) Auricularia auriculajudae IFO 5949, Pythium aphanidermaatum IFO 7030, and Menisporopsis novaezelandiae IFO 9179 were each inoculated into sterilized media (100 ml each) (Czapek Dox Broth for IFO 5949, YM1 medium for IFO 7030, and POTATO DEXTROSE BROTH for IFO 9179) in 500-ml Erlenmeyer flasks. The fungi were cultured on a rotary shaker at 210 rpm at 24° C. for 7 days and collected by centrifugation using a […] centrifuge with a RPR10-2 rotor at 8,000 rpm (12,500×g) for 20 min. […] Disrupted cells thus obtained were centrifuged using a […] centrifuge with a RPR20-2 rotor at 17,500 rpm (38,000×g) for 30 min at 4° C. to obtain the supernatant as the crude enzyme. […] Figures in the table denote the amount (mM) of D-amino acids produced from the corresponding N-acetyl-D-amino acids. The D-aminoacylase activity was detected in all the strains tested, producing D-amino acid from the corresponding N-acetyl-D-amino acid.

[5] = system: D-aminoacylase (crude enzyme) of Menisporopsis novaezelandiae IFO 9179; assay: as above; format: biochemical; settings: Menisporopsis novaezelandiae IFO 9179 crude enzyme; 20 mM substrate, 1 mM CoCl2, 50 mM phosphate buffer pH 7.0
Procedure: as §2

[6] = system: D-aminoacylase (crude enzyme) of Pythium aphanidermaatum IFO 7030; assay: as above; format: biochemical; settings: Pythium aphanidermaatum IFO 7030 crude enzyme; 20 mM substrate, 1 mM CoCl2, 50 mM phosphate buffer pH 7.0
Procedure: as §2

D-aminoacylase = assay: Substrate specificity of purified D-aminoacylase (TNBS method); format: biochemical, Hypomyces mycophilus IFO 6785; settings: for percentage of the specific activity compared with that for N-acetyl-D-methionine taken as 100%, D-enantiomer: 20 mM substrate, 50 mM Tris-HCl pH 7.5, 30° C., 20 min; for activity of the enzyme for the substrate (in words): summary of Table 5
Procedure: The enzyme activity was assayed by determining the amount of amino acid produced using the TNBS method and the HPLC method. In the TMBS method, 100 mM Na2B4O7 (0.5 ml) was added to a sample solution containing amino acid (0.5 ml), 20 μl of 110 mM TNBS (trinitrobenzenesulfonic acid) was then added, and the resulting mixture was quickly stirred. After 5 min, 100 mM NaH2PO4 containing 1.5 mM Na2SO3 (2 ml) was added to the reaction mixture to terminate the color reaction, and the absorbance at 420 nm was measured. HPLC was performed by subjecting a sample solution containing amino acid to high-performance liquid chromatography using an ODS column (column, Wakosil II 5C18 (4.6 dia.×250 mm) (Wako Pure Chemical); eluent, CH3CN/50 mM KH2PO4. H3PO4 (pH 2.5)=2:8; detection, A280 nm; and flow rate, 1.0 ml/min). The retention times were 3.5 min for D-tryptophan and 9.8 min for N-acetyl-D-tryptophan. Using D-tryptophan as the assay standard, one unit (or U) of the enzyme was defined as the amount of the enzyme required to produce 1 μmol of D-tryptophan at 30° C. for 1 min.
Substrate specificity of the enzyme was expressed as the percentage of the specific activity compared with that for N-acetyl-D-methionine taken as 100%. N-chloroacetyl-D-phenylalanine, N-acetyl-D-valine, N-acetyl-D-phenylalanine, N-acetyl-D-tryptophan, N-acetyl-D-leucine, N-acetyl-L-valine, N-acetyl-L-phenylalanine, N-acetyl-L-tryptophan, and N-acetyl-L-leucine substrates were used for the comparison. The enzyme reaction was performed in 50 mM Tris-HCl (pH 7.5) containing 1 µl of the enzyme solution and 20 mM of each substrate (total volume 1.0 ml) at 30° C. for 20 min, and terminated by adding 0.5 ml of a TCA reaction terminating solution according to Tsai et al. (consisting of 110 mM trichloroacetic acid, 220 mM sodium acetate, and 330 mM acetic acid). The enzyme activity was assayed by the TNBS method as described in Example 4(2).

[7] = system: Hypomyces mycophilus ATCC 76474; assay: D-amino acid production from N-acetyl-D-amino acid by washed fungal cells; format: cell-based; settings: Hypomyces mycophilus ATCC 76474 cells; 0.1% substrate, Tris-HCl pH 7.5, 30° C., 24 hours
Procedure: (§3) A platinum loopful of Hypomyces aurantius IFO 6847 strain, Hypomyces broomeanus IFO 9164 strain, Hypomyces rosellus IFO 6911 strain, Hypomyces chrysospermus IFO 6817 strain, Hypomyces sepulcralis IFO 9102 strain, Hypomyces subiculosus IFO 6892 strain, Hypomyces mycophilus ATCC 76474 or IFO 6785 strain, or Fusarium solani IFO 9974 or IFO 9975 strain was inoculated into 25 ml of YM medium (containing 0.3% yeast extract, 0.3% malt extract, 0.5% peptone, and 2.0% glucose, pH 6.0) in a 500-ml shouldered flask. The fungi were shake-cultured at 24° C. for 3 days. After culturing, a 5-ml aliquot of the culture medium was centrifuged in a refrigerated centrifuge to collect the fungal cells. The cells were washed with physiological saline solution (5 ml) and collected by centrifugation again. A reaction solution (containing 0.1% N-acetyl-D-amino acid shown in Table 1 below in Tris-HCl buffer, pH 7.5) was then added to the cells thus collected. The mixture was incubated in a 5-ml test tube with shaking at 30° C. for 24 hours.
(§4) D-Amino acid thus produced was determined by high-performance liquid chromatography (column, CROWNPAK CR (Daicel Chemical); column temperature, 26° C.; cooled in ice for only valine; mobile phase, HClO4 aqueous solution, pH 2.0; flow rate, 1 ml/min; and detection, 200 nm).

[8] = system: Hypomyces chrysospermus IFO 6817 strain; assay: as above; format: cell-based; settings: Hypomyces chrysospermus IFO 6817 cells; 0.1% substrate, Tris-HCl pH 7.5, 30° C., 24 hours
Procedure: as §3, §4

[9] = system: Hypomyces rosellus IFO 6911 strain; assay: as above; format: cell-based; settings: Hypomyces rosellus IFO 6911 cells; 0.1% substrate, Tris-HCl pH 7.5, 30° C., 24 hours
Procedure: as §3, §4

[10] = system: Hypomyces broomeanus IFO 9164 strain; assay: as above; format: cell-based; settings: Hypomyces broomeanus IFO 9164 cells; 0.1% substrate, Tris-HCl pH 7.5, 30° C., 24 hours
Procedure: as §3, §4

[11] = system: Fusarium solani IFO 9975 strain; assay: as above; format: cell-based; settings: Fusarium solani IFO 9975 cells; 0.1% substrate, Tris-HCl pH 7.5, 30° C., 24 hours
Procedure: as §3, §4

[12] = system: Hypomyces sepulcralis IFO 9102 strain; assay: as above; format: cell-based; settings: Hypomyces sepulcralis IFO 9102 cells; 0.1% substrate, Tris-HCl pH 7.5, 30° C., 24 hours
Procedure: as §3, §4

Fusarium solani IFO 9974 = assay: as above; format: cell-based; settings: Fusarium solani IFO 9974 cells; 0.1% substrate, Tris-HCl pH 7.5, 30° C., 24 hours
Procedure: as §3, §4

[13] = system: Hypomyces subiculosus IFO 6892 strain; assay: as above; format: cell-based; settings: Hypomyces subiculosus IFO 6892 cells; 0.1% substrate, Tris-HCl pH 7.5, 30° C., 24 hours
Procedure: as §3, §4

[14] = system: Hypomyces aurantius IFO 6847 strain; assay: as above; format: cell-based; settings: Hypomyces aurantius IFO 6847 cells; 0.1% substrate, Tris-HCl pH 7.5, 30° C., 24 hours
Procedure: as §3, §4

[15] = system: Hypomyces mycophilus IFO 6785 strain; assay: as above; format: cell-based; settings: Hypomyces mycophilus IFO 6785 cells; 0.1% substrate, Tris-HCl pH 7.5, 30° C., 24 hours
Procedure: as §3, §4

SMILES | amount of D-amino acids produced from the corresponding N-acetyl-D-amino acids [4] [mM] | amount of D-amino acids produced from the corresponding N-acetyl-D-amino acids [5] [mM] | amount of D-amino acids produced from the corresponding N-acetyl-D-amino acids [6] [mM] | percentage of the specific activity compared with that for N-acetyl-D-methionine taken as 100%, D-enantiomer (D-aminoacylase) [%] | activity of the enzyme for the substrate (in words) (D-aminoacylase) | D-amino acid produced from N-acetyl-DL-amino acid [1] [mg/mL] | D-amino acid produced from N-acetyl-DL-amino acid [2] [mg/mL] | D-amino acid produced from N-acetyl-DL-amino acid [3] [mg/mL] | D-amino acid produced from N-acetyl-D-amino acid [7] [mg/mL] | D-amino acid produced from N-acetyl-D-amino acid [8] [mg/mL] | D-amino acid produced from N-acetyl-D-amino acid [9] [mg/mL] | D-amino acid produced from N-acetyl-D-amino acid [10] [mg/mL] | D-amino acid produced from N-acetyl-D-amino acid [11] [mg/mL] | D-amino acid produced from N-acetyl-D-amino acid [12] [mg/mL] | D-amino acid produced from N-acetyl-D-amino acid (Fusarium solani IFO 9974) [mg/mL] | D-amino acid produced from N-acetyl-D-amino acid [13] [mg/mL] | D-amino acid produced from N-acetyl-D-amino acid [14] [mg/mL] | D-amino acid produced from N-acetyl-D-amino acid [15] [mg/mL]
CC(=O)NC(Cc1ccccc1)C(=O)O (racemic) [N-acetyl-DL-phenylalanine] | – | – | – | – | – | 0.21 | 0.12 | 0.16 | – | – | – | – | – | – | – | – | – | –
CC(=O)NC(Cc1c[nH]c2ccccc12)C(=O)O (racemic) [N-acetyl-DL-tryptophan] | – | – | – | – | – | 0.24 | 0.13 | 0.10 | – | – | – | – | – | – | – | – | – | –
CC(=O)N[C@H](C)C(=O)O [N-acetyl-D-alanine, N-Acetyl-D-alanine] | 1.46 | 0.09 | 0.29 | 0 | – | – | – | – | – | – | – | – | – | – | – | – | – | –
CC(=O)N[C@H](Cc1ccccc1)C(=O)O [N-acetyl-D-phenylalanine] | 4.34 | 0.44 | – | 298 | especially active | – | – | – | 0.003 | 0.003 | 0.06 | 0.004 | 0.002 | 0.15 | 0.001 | 0.05 | 0.005 | 0.65

The next lines start with results.

amount of D-amino acids produced from the corresponding N-acetyl-D-amino acids [4] [mM] | amount of D-amino acids produced from the corresponding N-acetyl-D-amino acids [5] [mM] | amount of D-amino acids produced from the corresponding N-acetyl-D-amino acids [6] [mM] | percentage of the specific activity compared with that for N-acetyl-D-methionine taken as 100%, D-enantiomer (D-aminoacylase) [%] | activity of the enzyme for the substrate (in words) (D-aminoacylase) | SMILES | D-amino acid produced from N-acetyl-DL-amino acid [1] [mg/mL] | D-amino acid produced from N-acetyl-DL-amino acid [2] [mg/mL] | D-amino acid produced from N-acetyl-DL-amino acid [3] [mg/mL] | D-amino acid produced from N-acetyl-D-amino acid [7] [mg/mL] | D-amino acid produced from N-acetyl-D-amino acid [8] [mg/mL] | D-amino acid produced from N-acetyl-D-amino acid [9] [mg/mL] | D-amino acid produced from N-acetyl-D-amino acid [10] [mg/mL] | D-amino acid produced from N-acetyl-D-amino acid [11] [mg/mL] | D-amino acid produced from N-acetyl-D-amino acid [12] [mg/mL] | D-amino acid produced from N-acetyl-D-amino acid (Fusarium solani IFO 9974) [mg/mL] | D-amino acid produced from N-acetyl-D-amino acid [13] [mg/mL] | D-amino acid produced from N-acetyl-D-amino acid [14] [mg/mL] | D-amino acid produced from N-acetyl-D-amino acid [15] [mg/mL]
2.44 | 1.30 | – | 109 | very active | CC(=O)N[C@H](Cc1c[nH]c2ccccc12)C(=O)O [N-acetyl-D-tryptophan] | – | – | – | 0.27 | 0.001 | 0.08 | 0.002 | 0.001 | 0.01 | 0 | 0.002 | 0.008 | 0.40
3.33 | 0.16 | – | 17.5 | somewhat active | CC(=O)N[C@@H](C(=O)O)C(C)C [N-acetyl-D-valine] | – | – | – | 0.11 | 3.16 | 2.73 | 0.18 | 0.22 | 3.19 | 0 | 0.23 | 0.14 | 0.98
